# From ChEMBL document CHEMBL4052737, “3-Oxo-γ-costic acid fungal-transformation generates eudesmane sesquiterpenes with in vitro tumor-inhibitory activity” (Bioorg Med Chem Lett, 2017)
# Activity calls are given as the source filed them. The rule behind the calls is not given here.
# Legend:
# Format in all cases: functional, cell-based
# Caco-2 [1] = experiment: Antiproliferative activity against human Caco2 cells after 48 hrs by MTT assay; conditions: for IC50: Caco-2, 48 h
# A549 = experiment: Antiproliferative activity against human A549 cells after 48 hrs by MTT assay; conditions: for IC50: A549, 48 h
# Caco-2 [2] = experiment: Induction of morphological changes in human Caco2 cells assessed as cell shrinkage at 50 uM by bright field phase contrast microscopy
# Caco-2 [3] = experiment: Induction of morphological changes in human Caco2 cells assessed as monolayer disruption at 50 uM by bright field phase contrast microscopy
Compound,IC50 (Caco-2 [1]),IC50 (A549),Activity (Caco-2 [1]),Activity (A549),Activity (Caco-2 [2]),Activity (Caco-2 [3])
C=C(C(=O)O)[C@@H]1CC[C@@]2(C)C[C@H](O)C(=O)C(C)=C2C1,60 µM,> 100 µM,Dose-dependent effect,Dose-dependent effect,,
C=C(C(=O)O)[C@@H]1CC[C@]2(C)C(=C(C)C(=O)C[C@H]2O)C1,75 µM,> 100 µM,Dose-dependent effect,Dose-dependent effect,,
C=C(C(=O)O)[C@@H]1CC[C@]2(C)C(=C(C)C(=O)[C@@H](O)[C@H]2O)C1,66 µM,74 µM,Dose-dependent effect,Dose-dependent effect,,

# Further compounds by falling IC50 (Caco-2 [1]), results first:
IC50 (Caco-2 [1]),IC50 (A549),Compound,Activity (Caco-2 [1]),Activity (A549),Activity (Caco-2 [2]),Activity (Caco-2 [3])
66 µM,> 100 µM,C=C(C(=O)O)[C@@H]1CC[C@@]2(C)C=CC(=O)C(C)=C2C1,Dose-dependent effect,Dose-dependent effect,,
46 µM,> 100 µM,C=C(C(=O)O)[C@@H]1CC[C@@]2(C)C=C(O)C(=O)C(C)=C2C1,Dose-dependent effect,Dose-dependent effect,,
39 µM,> 100 µM,C=C(C(=O)O)[C@@H]1CC[C@@]2(C)CCC(=O)C(C)=C2C1,Dose-dependent effect,Dose-dependent effect,Active,Active
